The record followed here is patent publication US4962224A, “N-naphthoylglycines as aldose reductase inhibitors” (American Home Products Corporation, priority 1989, dated 1990).

The test system of assay [1] is Sciatic Nerve Polyol Accumulation. The assay is described as follows: Two-Week Streptozocin - Diabetic Rat Model, lowering of sciatic nerve polyol accumulation. The format is in vivo, rat (Sprague-Dawley). To be noted: gavage, 14 days, STZ diabetic rats. From the text:
A second in vivo model examined the effect of the compounds of the present invention on sorbitol accumulation in the tissues of 14-day streptozocin (STZ) (Upjohn) diabetic rats.
In each of the studies male Sprague-Dawley rats from Charles River Labs, Kingston, N.Y., weighing 200 to 250 g, were used. The animals were weighed and observed for 5 days prior to the start of the study.
In each study the rats were randomly assigned by weight into groups of 15 animals except for group I which contained 8 animals. The groups were treated as follows:
Group II: STZ, 110 mg/kg i.p.
Group IV: STZ, 110 mg/kg i.p. followed by various doses of a compound of the present invention given by gavage for 14 days, beginning on the day of induction of diabetes.
Following an overnight fast (water ad lib) the animals in groups II-IV were given by i.p. injection 110 mg STZ per kg body weight. The STZ was dissolved in cold citric acid, 0.03M, pH 4.5 and injected within 5 minutes of being dissolved. Control rats (group I) were injected with buffer only.
Two days after STZ injection plasma glucose levels (from the tail vein) were determined following a 4 hour fast. Excluded from the study were animals whose plasma glucose was below 300 mg/dl.
On the morning of the 14th day following STZ injection the animals were fasted 4 hours prior to sacrificing by decapitation. The blood was collected into heparin containing tubes and placed on ice. Both lenses and sciatic nerves were removed immediately, weighed, frozen, and stored at -20° C. until analyzed for sorbitol. The RBCs were collected by centrifugation, the plasma was removed and the cells were washed once with 10 volumes of cold saline. The washed packed RBCs were divided into 1 mL aliquots, extracted with cold perchloric acid and the acid extracts were stored at -20° C. until analyzed for sorbitol.

The target in a further assay is T1, aldose reductase (Bos taurus, UniProt P16116).
T1 construct: preparation of the enzyme from bovine lens; from tissue; host or cells: bovine lens
The assay is described as follows: aldose reductase inhibiting effects in vitro (Table I, IN VITRO). Format: biochemical, bovine (lens). To be noted: for inhibition at 10 µM / inhibition at 1 µM / inhibition at 0.04 µM: read-out: % Inhibition IN VITRO. From the text:
In the present case the procedure of Hayman and Kinoshita was modified in that the final chromatography step was omitted in the preparation of the enzyme from bovine lens. The results are tabulated in Table I under the heading IN VITRO.

The next assay has as its system dulcitol accumulation. The assay is described as follows: lowering of dulcitol (galactitol) accumulation in tissues of galactosemic rats (Table I, IN VIVO). Further details: species or system rat (Sprague-Dawley). To be noted: for % Lowering dulcitol accumulation IN VIVO, D: diaphragm; for % Lowering dulcitol accumulation IN VIVO, D / % Lowering dulcitol accumulation IN VIVO, L: galactosemic rats, 4 days; for % Lowering dulcitol accumulation IN VIVO, L: lens. From the text:
Such experiments are exemplified hereinbelow after the listing of the following general comments pertaining to these experiments:
(a) Four or more groups of six male rats, […], Sprague-Dawley strain, were used. The first group, the control group, was fed a mixture of laboratory chow (rodent Laboratory Chow, Purina) and […] at 20% (w/w %) concentration. […] The test compound was either admixed to the diet or administered by gavage. In experiments involving compound administration in the diet, the average dose administered was calculated from the actual food intake of the animals in each group. The concentration of galactose in the diet of the treated groups was the same as that for the untreated galactosemic group.
(b) After four days, the animals were killed by decapitation. The eyeballs were removed and punctured with a razor blade; the freed lenses were rolled gently on filter paper and weighed. The sciatic nerves were dissected as completely as possible and weighed. Both tissues when frozen can be kept up to two weeks before being analyzed for galactitol.
Only two minor reagent changes were made: (a) the rinsing mixture was an aqueous 5% (w/v) trichloroacetic acid solution and (b) the stock solution was prepared by dissolving 25 mg of dulcitol in 100 mL of an aqueous trichloroacetic acid solution. [N.B.: For each experiment the average value found in the tissue from rats fed the glucose diet was subtracted from the individual values found in the corresponding tissue in galactose-fed rats to obtain the amount of polyol accumulated.]
The figures under L, N, and D represent the percentage decrease of galactitol accumulation in the tissues of the lens, sciatic nerve, and diaphragm, respectively, for treated rats as compared to untreated rats.

Values joined by “and” are separate entries in the source; they are usually repeats but may differ in a detail not shown here. Equal entries are not always repeated. Where two headings read alike, the source gives them in different places.

With `COc1ccc2c(C(=O)N(C)CC(N)=O)c(F)ccc2c1C(F)(F)F` [Example 1, N-[(Aminocarbonyl)methyl]-2-fluoro-6-methoxy-N-methyl-5-(trifluoromethyl)-1-naphthalenecarboxamide], the “% Lowering of Sciatic Nerve Polyol Accumulation, Fructose” value in assay [1] (3 mg/kg) is 69%; in assay [1] (6 mg/kg) it was 87%; in assay [1] (9 mg/kg), 94%; in assay [1] (12 mg/kg), 98%; in assay [1] (20 mg/kg), 105%. The “% Lowering of Sciatic Nerve Polyol Accumulation, Sorbital” value amounted to 50% in assay [1] (3 mg/kg); 77% in assay [1] (6 mg/kg); 79% in assay [1] (9 mg/kg); 78% in assay [1] (12 mg/kg); 84% in assay [1] (20 mg/kg). Also, at aldose reductase (10^-5 M), the inhibition (in general, the change of the read-out against control, counted positive when it falls) at 10 µM is 1%. Besides, on aldose reductase (10^-6 M), the inhibition at 1 µM is 0%. The “results in the sciatic nerve compared with tolrestat” value in the assay on dulcitol accumulation (10 mg/kg/day versus tolrestat at 9 mg/kg/day, sciatic nerve) is “comparable results”. Moreover, the “% Lowering dulcitol accumulation IN VIVO, D” value was 32% in the assay with dulcitol accumulation (5 mg/kg); 53% and 58% with dulcitol accumulation (10 mg/kg); 52% in the assay on dulcitol accumulation (12 mg/kg); 62% with dulcitol accumulation (14 mg/kg); 57% with dulcitol accumulation (15 mg/kg); 63% with dulcitol accumulation (19 mg/kg). The “% Lowering dulcitol accumulation IN VIVO, D” value in the assay with dulcitol accumulation (24 mg/kg) was 75%. Also, the “% Lowering dulcitol accumulation IN VIVO, L” value with dulcitol accumulation (5 mg/kg), in the assay on dulcitol accumulation (10 mg/kg), with dulcitol accumulation (12 mg/kg), in the assay on dulcitol accumulation (14 mg/kg), with dulcitol accumulation (15 mg/kg) and with dulcitol accumulation (19 mg/kg) was “N.S” throughout. Further, the “% Lowering dulcitol accumulation IN VIVO, L” value with dulcitol accumulation (24 mg/kg) is “N.S”.

As to `COc1ccc2c(C(F)(F)F)c(OC)ccc2c1C(=O)N(C)CC(=O)O` [OCH3 O OH], the inhibition at 0.04 µM at aldose reductase (4 × 10^-8 M) amounted to 56%; on aldose reductase, 38%. The inhibition at 10 µM at aldose reductase (10^-5 M) was 95%; on aldose reductase, 99%. In addition, the “% Inhibition IN VITRO” value is 92% on aldose reductase (10^-6 M); 91% and 62% on aldose reductase (10^-7 M). For the same molecule, on aldose reductase (10^-6 M), the inhibition at 1 µM was found to be 95%. Besides, the “% Lowering dulcitol accumulation IN VIVO, D” value in the assay with dulcitol accumulation (26 mg/kg) is on record as 71%; in the assay on dulcitol accumulation (53 mg/kg), “N.S”. In addition, the “% Lowering dulcitol accumulation IN VIVO, L” value in the assay on dulcitol accumulation (26 mg/kg) and in the assay with dulcitol accumulation (53 mg/kg) was “N.S” in each case.

In the case of `COc1ccc2c(C(=S)N(C)CC(=O)O)cccc2c1C(F)(F)F` [tolrestat, N-[[6-methoxy-5-(trifluoromethyl)-1-naphthalenyl]thioxomethyl]-N-methylglycine, reference compound], in assay [1] (6 mg/kg), the “% Lowering of Sciatic Nerve Polyol Accumulation, Fructose” value stood at 58% and the “% Lowering of Sciatic Nerve Polyol Accumulation, Sorbital” value is 53%. In addition, the “% Lowering dulcitol accumulation IN VIVO, L” value with dulcitol accumulation (9 mg/kg) was “N.S”.
